The values below come from US20160362408A1 (Bayer Pharma Aktiengesellschaft, priority 2013, published 2016).

Counter-ions that a name gives are not always drawn.

The assay deals with T1, recombinant guanylate cyclase reporter cell line (Rattus norvegicus, UniProt P19686+P20595).
T1 construct: expressed in transfected cells
T1 sequence (P19686 1-690): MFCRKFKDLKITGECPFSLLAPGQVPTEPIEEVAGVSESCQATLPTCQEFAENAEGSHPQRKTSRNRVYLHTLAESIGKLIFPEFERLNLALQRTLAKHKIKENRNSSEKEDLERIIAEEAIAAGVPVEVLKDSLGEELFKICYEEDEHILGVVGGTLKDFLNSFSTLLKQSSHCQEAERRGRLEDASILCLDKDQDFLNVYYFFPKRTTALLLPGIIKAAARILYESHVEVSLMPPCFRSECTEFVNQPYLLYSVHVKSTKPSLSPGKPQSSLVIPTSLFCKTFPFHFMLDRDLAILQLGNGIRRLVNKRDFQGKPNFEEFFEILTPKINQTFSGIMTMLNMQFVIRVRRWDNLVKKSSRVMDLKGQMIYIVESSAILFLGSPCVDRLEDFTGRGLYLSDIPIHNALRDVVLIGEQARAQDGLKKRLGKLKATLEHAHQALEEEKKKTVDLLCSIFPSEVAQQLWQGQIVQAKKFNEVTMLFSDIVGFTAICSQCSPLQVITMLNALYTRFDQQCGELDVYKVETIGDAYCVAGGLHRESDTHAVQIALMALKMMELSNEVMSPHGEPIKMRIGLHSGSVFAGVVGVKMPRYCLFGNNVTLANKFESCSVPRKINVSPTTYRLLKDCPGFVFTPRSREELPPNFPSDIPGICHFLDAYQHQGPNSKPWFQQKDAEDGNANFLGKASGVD
T1 sequence (P20595 1-619): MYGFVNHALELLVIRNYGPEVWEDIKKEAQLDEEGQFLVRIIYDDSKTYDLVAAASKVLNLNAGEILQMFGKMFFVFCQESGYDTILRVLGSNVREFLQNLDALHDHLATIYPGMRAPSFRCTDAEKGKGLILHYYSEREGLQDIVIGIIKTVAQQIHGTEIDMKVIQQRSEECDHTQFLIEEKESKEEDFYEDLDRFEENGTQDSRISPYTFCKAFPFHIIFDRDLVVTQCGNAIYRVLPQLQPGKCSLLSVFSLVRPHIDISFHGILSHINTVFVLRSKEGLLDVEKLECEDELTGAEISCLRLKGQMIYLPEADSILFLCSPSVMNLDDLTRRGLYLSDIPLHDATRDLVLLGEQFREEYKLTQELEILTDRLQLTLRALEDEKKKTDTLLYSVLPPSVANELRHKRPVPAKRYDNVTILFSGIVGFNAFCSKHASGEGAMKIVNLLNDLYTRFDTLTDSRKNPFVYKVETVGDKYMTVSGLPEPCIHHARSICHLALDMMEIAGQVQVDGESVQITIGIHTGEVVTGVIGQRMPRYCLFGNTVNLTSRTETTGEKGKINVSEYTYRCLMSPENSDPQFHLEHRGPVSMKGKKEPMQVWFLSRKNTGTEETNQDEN
As to the kind of experiment: Effect on a recombinant guanylate cyclase reporter cell line. It counts as cell-based. The note with it: MEC = minimum effective concentration; in some cases mean values for individual determinations. A digest of the protocol:
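Compounds tested in a recombinant guanylate cyclase reporter cell line per a published method. Potency expressed as minimum effective concentration (MEC), sometimes as mean of individual determinations.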
As to `Cc1nc2c(OCc3c(F)cccc3F)cccn2c1C(=O)Nc1ccnc2ccc(Cl)cc12` [Example 71], the MEC amounted to 0.1 µM.
With `Cc1ccc(F)c(NC(=O)c2c(C)nc3c(OCc4c(F)cccc4F)cccn23)c1` [Example 9] the figure was 0.3 µM.
The value for `Cc1cc(OCc2c(F)cccc2F)c2nc(C)c(C(=O)Nc3cnn(COCC(F)(F)F)c3)n2c1` [Example 89] was 0.1 µM; that for `Cc1nc2c(OCc3c(F)cccc3F)cccn2c1C(=O)Nc1cccc2cccc(Cl)c12` [Example 60, N-(8-Chloronaphthalen-1-yl)-8-[(2,6-difluorobenzyl)oxy]-2-methylimidazo[1,2-a]pyridine-3-carboxamide trifluoroacetate] was 0.3 µM.
With `CCc1cc(NC(=O)c2c(C)nc3c(OCc4c(F)cccc4F)cccn23)ccn1` [Example 8] the figure was 0.1 µM.
On to `Cc1nc2c(OCc3c(F)cccc3F)cccn2c1C(=O)Nc1ccncc1C(F)(F)F` [Example 123, 8-[(2,6-difluorobenzyl)oxy]-2-methyl-N-[3-(trifluoromethyl)pyridin-4-yl)imidazo[1,2-a]pyridine-3-carboxamide trifluoroacetate], for which the MEC stood at 1.0 µM.
With `Cc1nc2c(OCc3c(F)cccc3F)cccn2c1C(=O)Nc1ccc(NCCO)cc1` [Example 98] the figure was 1.0 µM; with `Cc1nn(CC(F)(F)F)c(C)c1NC(=O)c1c(C)nc2c(OCc3c(F)cccc3F)cc(Cl)cn12` [Example 43, 6-chloro-8-[(2,6-difluorobenzyl)oxy]-N-[3,5-dimethyl-1-(2,2,2-trifluoroethyl)-1H-pyrazol-4-yl]-2-methylimidazo[1,2-a]pyridine-3-carboxamide], 0.03 µM; with `Cc1cc(OCc2c(F)cccc2F)c2nc(C)c(C(=O)Nc3cnn(CC(F)(F)F)c3)n2c1` [Example 85], 0.1 µM.
The value for `Cc1cc(OCc2c(F)cccc2F)c2nc(C)c(C(=O)Nc3ccccc3CN)n2c1` [Example 112, N-[2-(Aminomethyl)phenyl]-8-[(2,6-difluorobenzyl)oxy]-2,6-dimethylimidazo[1,2-a]pyridine-3-carboxamide] was 0.3 µM.
The value for `COc1ccc(C)c(NC(=O)c2c(C)nc3c(OCc4c(F)cccc4F)cccn23)c1` [Example 16] was 0.3 µM.
Turning to `Cc1nc2c(OCc3c(F)cccc3F)cccn2c1C(=O)Nc1nn(C)c2ccc(C(F)(F)F)cc12` [Example 103, 8-[(2,6-Difluorobenzyl)oxy]-2-methyl-N-[1-methyl-5-(trifluoromethyl)-1H-indazol-3-yl]imidazo[1,2-a]pyridine-3-carboxamide], the MEC was 1.0 µM.
Take `Cc1nc2c(OCc3c(F)cccc3F)cccn2c1C(=O)Nc1cccc2ccccc12` [Example 56, 8-[(2,6-difluorobenzyl)oxy]-2-methyl-N-(naphthalen-1-yl)imidazo[1,2-a]pyridine-3-carboxamide]: the MEC worked out at 0.1 µM.
The value for `Cc1nc2c(OCc3c(F)cccc3F)cc(Cl)cn2c1C(=O)Nc1c(C(F)(F)F)nn(CCO)c1C` [Example 117, 6-chloro-8-[(2,6-difluorobenzyl)oxy]-N-[1-(2-hydroxyethyl)-5-methyl-3-(trifluoromethyl)-1H-pyrazol-4-yl]-2-methylimidazo[1,2-a]pyridine-3-carboxamide] was 0.1 µM; that for `Cc1nc2c(OCc3c(F)cccc3F)cccn2c1C(=O)Nc1c(C(F)(F)F)nn(CCO)c1C` [Example 116, 8-[(2,6-Difluorobenzyl)oxy]-N-[1-(2-hydroxyethyl)-5-methyl-3-(trifluoromethyl)-1H-pyrazol-4-yl]-2-methylimidazo[1,2-a]pyridine-3-carboxamide] was 0.5 µM.
With `Cc1nc2c(OCc3c(F)cccc3F)cc(Cl)cn2c1C(=O)Nc1cnn2ccccc12` [Example 82] the figure was 0.3 µM; with `CCn1nc(C)c(NC(=O)c2c(C)nc3c(OCCC(C(F)(F)F)C(F)(F)F)cc(C)cn23)c1C` [Example 147, N-(1-Ethyl-3,5-dimethyl-1H-pyrazol-4-yl)-2,6-dimethyl-8-[4,4,4-trifluoro-3-(trifluoromethyl)butoxy]imidazo[1,2-a]pyridine-3-carboxamide], 3.0 µM.
The value for `Cc1nc2c(OCc3c(F)cccc3F)cccn2c1C(=O)Nc1cnn(CC(N)=O)c1` [Example 25, N-[1-(2-amino-2-oxoethyl)-1H-pyrazol-4-yl]-8-[(2,6-difluorobenzyl)oxy]-2-methylimidazo[1,2-a]pyridine-3-carboxamide] was 3.0 µM; that for `Cc1nc2c(OCc3c(F)cccc3F)cccn2c1C(=O)Nc1cc(C)n(C)n1` [Example 122, 8-[(2,6-difluorobenzyl)oxy]-N-(1,5-dimethyl-1H-pyrazol-3-yl)-2-methylimidazo[1,2-a] pyridine-3-carboxamide] was 3.0 µM.
